Test results from PMC4747952, “Development of TASP0410457 (TASP457), a novel dihydroquinolinone derivative as a PET radioligand for central histamine H3 receptors” (EJNMMI Research, 2016).

Target: T1, H3R (Rattus norvegicus, UniProt Q9QYN8)
T1 construct: from tissue; host or cells: brain of living Sprague-Dawley rats
Experiment: PET imaging of rat brains
Assay type: in vivo
Settings: for cerebellar SUV at 15 min after radioligand injection: mean ± S.D.
Method: Six-week-old male Sprague-Dawley rats were purchased from Japan SLC (Shizuoka, Japan). PET scans were performed using a microPET Focus 220 small-animal scanner (Siemens Medical Solutions USA, Knoxville, TN). The rats were anesthetized with 1.5–2 % isoflurane during the imaging session, while their heart rate and blood oxygen saturation were monitored by pulse oximeter (CANL-425SVA; Med Associates, St. Albans, VT). Body temperature was kept at 37 °C with a heating pad (BWT-100; Bio Research Center, Aichi, Japan). Following the transmission scans for attenuation correction using a ^68Ge-^68Ga point source, emission scans were performed for 90 min in 3D list-mode with an energy window of 350–750 keV, immediately after the intravenous injection of each radioligand. Mean ± S.D. of the injected radioactivity of [^11C]TASP0410457, [^11C]TASP0434988, and [^11C]TASP0390136 was 119 ± 26 MBq, 132 ± 34 MBq, and 124 ± 17 MBq, respectively (n = 3–5). Mean ± S.D. of the mass doses of [^11C]TASP0410457, [^11C]TASP0434988, and [^11C]TASP0390136 was 2.4 ± 1.2 μg/kg, 1.9 ± 0.4 μg/kg, and 4.2 ± 1.6 μg/kg, respectively (n = 3–5).
To assess the specificity of radioligand binding, thioperamide was injected intravenously at a dose of 10 mg/kg at 30 s before the injection of each radioligand.
All list-mode data were sorted into 3D sinograms, which were then Fourier rebinned into 2D sinograms (frames: 1 min × 4, 2 min × 8 and 5 min × 14). Images were reconstructed using 2D-filtered back-projection with a 0.5-mm Hanning filter.
PET image and magnetic resonance imaging (MRI) template were co-registered using PMOD software (PMOD version 3.206; Zurich, Switzerland) according to the following procedure as in our previous works: Outline of the whole brain and positions of eyes in PET images at an early phase of the scan were initially matched to those in MRI images, and then further translations and rotations of PET images were manually performed for fine alignments. Finally, parameters for the co-registration were applied to the entire dynamic PET data. Regions of interest (ROIs) were placed on the striatum, hippocampus, and cerebellum using PMOD software with reference to the MRI template as described elsewhere. The tissue time-activity curves (TACs) for these ROIs were generated by calculating the SUV for each time frame as follows: SUV=radioactivityBq/g×bodyweightg/injectedradiotracerdoseBq
The binding potentials relative to the non-displaceable uptake (BPND) in the striatum and hippocampus were estimated using the simplified reference tissue model (SRTM) with PMOD software using the cerebellum as a reference region, as the rat cerebellum is devoid of H3R [26].

[1] = SRTM, cerebellum as reference region

T1 sequence (Q9QYN8 whole entry): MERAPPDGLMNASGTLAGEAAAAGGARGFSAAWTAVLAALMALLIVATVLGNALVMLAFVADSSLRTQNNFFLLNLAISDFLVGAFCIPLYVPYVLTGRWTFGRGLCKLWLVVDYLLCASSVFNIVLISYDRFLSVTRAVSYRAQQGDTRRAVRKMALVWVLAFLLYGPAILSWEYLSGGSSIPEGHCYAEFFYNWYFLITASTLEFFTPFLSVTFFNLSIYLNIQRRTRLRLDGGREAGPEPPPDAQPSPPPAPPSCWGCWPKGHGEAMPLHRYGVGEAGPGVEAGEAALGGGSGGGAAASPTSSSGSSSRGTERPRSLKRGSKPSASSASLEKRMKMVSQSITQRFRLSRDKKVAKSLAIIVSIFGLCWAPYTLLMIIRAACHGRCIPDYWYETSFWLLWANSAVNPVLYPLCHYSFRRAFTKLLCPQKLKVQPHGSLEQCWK

[11CH3]Oc1ccc(N2C(=O)CCc3cc(OC4CCN(C5CCC5)CC4)ccc32)cn1 [[^11C]TASP0410457]
BPND, Hippocampus [1]: 0.53 ± 0.06 | BPND, Striatum [1]: 1.26 ± 0.12 | cerebellar SUV at 15 min after radioligand injection (baseline): 0.64 ± 0.13 | peak SUV, cerebellum (bolus intravenous, baseline): ~1.2 | peak SUV, hippocampus (bolus intravenous, baseline): around 1.5 | peak SUV, striatum (bolus intravenous, baseline): ~2.0 | time for specific binding to reach a pseudo-equilibrium state (target-to-reference ratios, after intravenous injection): ≤ 15 min | cerebellar SUV at 15 min after radioligand injection (thioperamide predosing 10 mg/kg): 0.47 ± 0.09
